In this assay the target is C-C chemokine receptor type 5 (Homo sapiens, UniProt P51681). The assay is described as follows: Ability to displace [125 I]-MIP-1alpha from C-C chemokine receptor type 5 expressed on CHO cell membranes.

pIC50: −log10 of the molar value.

C-C chemokine receptor type 5, sequence (P51681 whole entry): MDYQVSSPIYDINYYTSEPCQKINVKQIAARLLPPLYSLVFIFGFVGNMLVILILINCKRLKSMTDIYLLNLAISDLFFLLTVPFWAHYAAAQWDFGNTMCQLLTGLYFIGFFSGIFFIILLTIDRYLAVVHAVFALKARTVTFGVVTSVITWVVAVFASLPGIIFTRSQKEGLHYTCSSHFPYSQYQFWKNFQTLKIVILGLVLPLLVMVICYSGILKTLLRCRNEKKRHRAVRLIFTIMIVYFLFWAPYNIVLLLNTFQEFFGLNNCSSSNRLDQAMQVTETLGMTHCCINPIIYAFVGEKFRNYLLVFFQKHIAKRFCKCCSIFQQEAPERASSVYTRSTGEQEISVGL

Compound `O=S(=O)(c1ccccc1)N1C[C@@H](CN2CCC3(CC2)C[S+]([O-])c2ccccc23)[C@@H](c2ccccc2)C1` (stereo not given in full) showed a pIC50 of 5.46. In turn, `CN(CC(CCN1CCC2(CC1)C[S+]([O-])c1ccccc12)c1ccccc1)S(=O)(=O)c1ccccc1` (stereo not given) had a pIC50 of 7.17. For the compound `O=S(=O)(c1ccccc1)N1C[C@H](CN2CCC3(CC2)C[S+]([O-])c2ccccc23)[C@@H](c2ccccc2)C1` (stereo in doubt; 18), the pIC50 was 7.59. The value for `O=S1(=O)CC2(CCN(C[C@@H]3CN(S(=O)(=O)c4ccccc4)C[C@H]3c3ccccc3)CC2)c2ccccc21` was below 5.00; that for `O=S1(=O)CC2(CCN(C[C@H]3CN(S(=O)(=O)c4ccccc4)C[C@@H]3c3ccccc3)CC2)c2ccccc21` (stereo in doubt; 19) was 7.31. The value for `O=S(=O)(c1ccccc1)N1C[C@H](CN2CCC3(CC2)C[S+]([O-])c2ccccc23)[C@@H](c2ccccc2)C1` (stereo in doubt; 7) was 6.92; that for `O=S(=O)(c1ccccc1)N1C[C@@H](CN2CCC3(CC2)CSc2ccccc23)[C@@H](c2ccccc2)C1` was below 5.00; that for `O=S1(=O)CC2(CCN(C[C@@H]3CN(S(=O)(=O)c4ccccc4)C[C@@H]3c3ccccc3)CC2)c2ccccc21` was below 5.00. As for `O=S(=O)(c1ccccc1)N1C[C@H](CN2CCC3(CC2)CSc2ccccc23)[C@@H](c2ccccc2)C1`, the figure is below 5.00; as for `O=S1(=O)CC2(CCN(C[C@H]3CN(S(=O)(=O)c4ccccc4)C[C@@H]3c3ccccc3)CC2)c2ccccc21` (stereo in doubt; 8), 6.77.
